Values quoted from earlier work in PMC5766568, “Effective photo-enhancement of cellular activity of fluorophore-octaarginine antisense PNA conjugates correlates with singlet oxygen formation, endosomal escape and chromophore lipophilicity” (Scientific Reports, 2018).
Read-outs that look alike come from different tables or passages of the source.

Source text: This could be due to a low quantum yield for singlet oxygen formation, which unfortunately is not available.

| log P (octanol/water) | SMILES | log P (octanol/water) (fluorophore alone) |
| --- | --- | --- |
| −1.44 | N=c1ccc2c(-c3ccc(C(=O)O)cc3C(=O)O)c3ccc(N)c(S(=O)(=O)O)c3oc-2c1S(=O)(=O)O [AF488, Alexa Fluor 488] |  |
|  | CN(C)c1ccc2c(-c3ccccc3C(=O)[O-])c3ccc(N(C)C)cc3[o+]c2c1 [TMR fluorophore, Tetramethylrhodamine] | 2.92 |
